Columns and labels:
[1] = The drug is tested on Z-027 corresponding to metagenome with ENA study accession number: PRJEB37062 and ENA sample accession number: ERS12561826 for biotransformation under anaerobic condition. The drug concentrations were measured over 9 timepoints collected between 0 and 24 hours of incubation by liquid-chromatography-coupled mass spectrometry (LC–MS); conditions: 2 µM
[2] = The drug is tested on Z-023 corresponding to metagenome with ENA study accession number: PRJEB37062 and ENA sample accession number: ERS12561822 for biotransformation under anaerobic condition. The drug concentrations were measured over 9 timepoints collected between 0 and 24 hours of incubation by liquid-chromatography-coupled mass spectrometry (LC–MS); conditions: 2 µM
[3] = The drug is tested on Z-020 corresponding to rabbit gut metagenome with ENA study accession number: PRJEB37062 and ENA sample accession number: ERS12561819 for biotransformation under anaerobic condition. The drug concentrations were measured over 9 timepoints collected between 0 and 24 hours of incubation by liquid-chromatography-coupled mass spectrometry (LC–MS); conditions: 2 µM
[4] = The drug is tested on Z-012 corresponding to metagenome with ENA study accession number: PRJEB37062 and ENA sample accession number: ERS12561812 for biotransformation under anaerobic condition. The drug concentrations were measured over 9 timepoints collected between 0 and 24 hours of incubation by liquid-chromatography-coupled mass spectrometry (LC–MS); conditions: 2 µM
[5] = The drug is tested on Z-011 corresponding to mouse gut metagenome with ENA study accession number: PRJEB37062 and ENA sample accession number: ERS12561811 for biotransformation under anaerobic condition. The drug concentrations were measured over 9 timepoints collected between 0 and 24 hours of incubation by liquid-chromatography-coupled mass spectrometry (LC–MS); conditions: 2 µM
[6] = The drug is tested on Z-001 corresponding to mouse gut metagenome with ENA study accession number: PRJEB37062 and ENA sample accession number: ERS12561801 for biotransformation under anaerobic condition. The drug concentrations were measured over 9 timepoints collected between 0 and 24 hours of incubation by liquid-chromatography-coupled mass spectrometry (LC–MS); conditions: 2 µM
[7] = The drug is tested on WLS-098 corresponding to human gut metagenome with ENA study accession number: PRJEB37062 and ENA sample accession number: ERS12561754 for biotransformation under anaerobic condition. The drug concentrations were measured over 9 timepoints collected between 0 and 24 hours of incubation by liquid-chromatography-coupled mass spectrometry (LC–MS); conditions: 2 µM
[8] = The drug is tested on WLS-090 corresponding to human gut metagenome with ENA study accession number: PRJEB37062 and ENA sample accession number: ERS12561753 for biotransformation under anaerobic condition. The drug concentrations were measured over 9 timepoints collected between 0 and 24 hours of incubation by liquid-chromatography-coupled mass spectrometry (LC–MS); conditions: 2 µM
[9] = The drug is tested on WLS-073 corresponding to human gut metagenome with ENA study accession number: PRJEB37062 and ENA sample accession number: ERS12561749 for biotransformation under anaerobic condition. The drug concentrations were measured over 9 timepoints collected between 0 and 24 hours of incubation by liquid-chromatography-coupled mass spectrometry (LC–MS); conditions: 2 µM
[10] = The drug is tested on WLS-052 corresponding to human gut metagenome with ENA study accession number: PRJEB37062 and ENA sample accession number: ERS12561747 for biotransformation under anaerobic condition. The drug concentrations were measured over 9 timepoints collected between 0 and 24 hours of incubation by liquid-chromatography-coupled mass spectrometry (LC–MS); conditions: 2 µM
[11] = The drug is tested on WLS-027 corresponding to human gut metagenome with ENA study accession number: PRJEB37062 and ENA sample accession number: ERS12561744 for biotransformation under anaerobic condition. The drug concentrations were measured over 9 timepoints collected between 0 and 24 hours of incubation by liquid-chromatography-coupled mass spectrometry (LC–MS); conditions: 2 µM
[12] = The drug is tested on WLS-007 corresponding to human gut metagenome with ENA study accession number: PRJEB37062 and ENA sample accession number: ERS12561742 for biotransformation under anaerobic condition. The drug concentrations were measured over 9 timepoints collected between 0 and 24 hours of incubation by liquid-chromatography-coupled mass spectrometry (LC–MS); conditions: 2 µM
[13] = human gut metagenome, 24 h, 2 µM
[14] = human gut metagenome, 24 h, 2 µM; remark: listed apart in the source
[15] = human gut metagenome, 24 h, 2 µM; remark: listed apart in the source
[16] = human gut metagenome, 24 h, 2 µM; remark: listed apart in the source
[17] = human gut metagenome, 24 h, 2 µM; remark: listed apart in the source
[18] = human gut metagenome, 24 h, 2 µM; remark: listed apart in the source
[19] = human gut metagenome, 24 h, 2 µM; remark: listed apart in the source
[20] = human gut metagenome, 24 h, 2 µM; remark: listed apart in the source
Also: call rule not given here.

| SMILES | Bacterial Biotransformation [1] | Bacterial Biotransformation [2] | Bacterial Biotransformation [3] | Bacterial Biotransformation [4] | Bacterial Biotransformation [5] | Bacterial Biotransformation [6] | Bacterial Biotransformation [7] | Bacterial Biotransformation [8] | Bacterial Biotransformation [9] | Bacterial Biotransformation [10] | Bacterial Biotransformation [11] | Bacterial Biotransformation [12] | Bacterial Biotransformation [13] | Bacterial Biotransformation [14] | Bacterial Biotransformation [15] | Bacterial Biotransformation [16] | Bacterial Biotransformation [17] | Bacterial Biotransformation [18] | Bacterial Biotransformation [19] | Bacterial Biotransformation [20] |
| --- | --- | --- | --- | --- | --- | --- | --- | --- | --- | --- | --- | --- | --- | --- | --- | --- | --- | --- | --- | --- |
| CN1C(=O)CCS(=O)(=O)C1c1ccc(Cl)cc1 (stereo not given) [CHLORMEZANONE] | Compound NOT metabolized | Compound NOT metabolized | Compound NOT metabolized | Compound NOT metabolized | Compound NOT metabolized | Compound NOT metabolized | Compound NOT metabolized | Compound metabolized | Compound NOT metabolized | Compound NOT metabolized | Compound NOT metabolized | Compound NOT metabolized | Compound NOT metabolized | Compound NOT metabolized | Compound NOT metabolized | Compound NOT metabolized | Compound NOT metabolized | Compound NOT metabolized | Compound metabolized | Compound NOT metabolized |
| Clc1ccc(Cn2c(CN3CCCC3)nc3ccccc32)cc1 [CLEMIZOLE] | Compound NOT metabolized | Compound metabolized | Compound NOT metabolized | Compound NOT metabolized | Compound NOT metabolized | Compound metabolized | Compound metabolized | Compound metabolized | Compound NOT metabolized | Compound metabolized | Compound metabolized | Compound metabolized | Compound metabolized | Compound metabolized | Compound metabolized | Compound NOT metabolized | Compound metabolized | Compound NOT metabolized | Compound metabolized | Compound metabolized |
| CN1CCN(C2=Nc3cc(Cl)ccc3Nc3ccccc32)CC1 [CLOZAPINE] | Compound NOT metabolized | Compound metabolized | Compound NOT metabolized | Compound NOT metabolized | Compound NOT metabolized | Compound NOT metabolized | Compound metabolized | Compound metabolized | Compound NOT metabolized | Compound NOT metabolized | Compound metabolized | Compound NOT metabolized | Compound NOT metabolized | Compound metabolized | Compound NOT metabolized | Compound NOT metabolized | Compound metabolized | Compound NOT metabolized | Compound metabolized | Compound NOT metabolized |
